The record followed here is PMC2891523 (The Journal of organic chemistry, 2010).

The target of the assay is T1, α-TTP (tocopherol transfer protein) (Homo sapiens, UniProt P49638).
T1 sequence (P49638 1-278): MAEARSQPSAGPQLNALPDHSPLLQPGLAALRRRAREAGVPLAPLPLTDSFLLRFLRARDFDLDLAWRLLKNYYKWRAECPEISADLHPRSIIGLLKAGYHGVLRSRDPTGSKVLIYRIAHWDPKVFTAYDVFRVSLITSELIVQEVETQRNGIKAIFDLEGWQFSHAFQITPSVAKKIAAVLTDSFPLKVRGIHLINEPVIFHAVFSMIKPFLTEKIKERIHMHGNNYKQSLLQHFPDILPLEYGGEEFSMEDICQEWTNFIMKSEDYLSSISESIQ
Put plainly: fluorescence titration of purified α-TTP, one-site binding fit.

`CC1=CC(C)=[N+]2C1=Cc1ccc(CCCCCC[C@]3(C)CCc4c(C)c(O)c(C)c(C)c4O3)n1[B-]2(F)F` [10a, (R)-5,5-difluoro-7-(6-(6-hydroxy-2,5,7,8-tetramethylchroman-2-yl)hexyl)-1,3-dimethyl-5H-dipyrrolo[1,2-c:1′,2′-f][1,3,2]diazaborinin-4-ium-5-uide] had a Kd of 232 ± 10 nM.
